# Source: PMC8854719, “Phase 1A/1B dose-escalation and -expansion study to evaluate the safety, pharmacokinetics, food effects and antitumor activity of pamiparib in advanced solid tumours” (British Journal of Cancer, 2021)
# Where “and” joins values, the source holds several entries; their conditions need not be identical. Equal values may be shown once.
# Test system: epithelial ovarian cancer (EOC)
# Assay: Tumour response and PFS per RECIST v1.1, EOC efficacy-evaluable population
# Assay type: in vivo, human
# Description: Tumour response was evaluated by RECIST v1.1. For patients with ovarian cancer, tumour response was assessed per RECIST v1.1 and by Gynecologic Cancer Intergroup (GCIG) CA-125 criteria. Tumour response for patients with prostate cancer was assessed by Prostate Cancer Clinical Trials Working Group 2 (PCWG2) criteria. Objective response rate (ORR) was defined as the proportion of patients achieving a confirmed complete response (CR) or partial response (PR) on study treatment. Blood tumour antigens (e.g., carcinoembryonic antigen for colorectal cancer, CA-125 for ovarian cancer and prostate-specific antigen [PSA] for mCRPC) were assessed during screening, every 6 weeks after the first pamiparib dose in the first 12 months, and every 9 weeks thereafter.
# Analyses of ORR (95% confidence interval [CI]) by investigator assessment were performed using predefined subgroups of the EOC population, including age group (<65 years versus ≥65 years), baseline ECOG performance status (0 versus 1), solid tumour stage (Stage III versus IV), BRCA/HRD status (germline BRCA mutation versus wild-type or unknown; germline or somatic BRCA mutation versus wild-type or unknown; HRD-positive versus negative or unknown), and platinum response status (platinum-sensitive versus platinum-resistant versus platinum-refractory).
# The safety population comprised all patients in the dose-escalation and dose-expansion phases who received at least one dose of pamiparib (Supplementary Table S2). Patients in the safety analysis set for whom valid pamiparib PK parameters were estimated and for whom evaluable PD results were available represented the PK population and the PD population, respectively. The efficacy-evaluable population included patients in the safety analysis set who had at least one evaluable postbaseline tumour assessment or those who discontinued due to clinical disease progression or early death before tumour assessment could be performed. The EOC efficacy-evaluable population was a subset of the overall efficacy-evaluable population that included patients with EOC from both the dose-escalation and dose-expansion phases. Patients in the dose-expansion phase without measurable disease at baseline per RECIST v1.1 were excluded from the efficacy-evaluable population.
# Descriptive statistics were used to summarise all study data (see Supplemental Appendix). Progression-free survival (PFS) and event-free rates were estimated using the Kaplan–Meier method along with the corresponding 95% CI. Pharmacokinetic parameters were derived using standard non-compartmental methods with Phoenix WinNonlin Version 6.4 or higher (Pharsight Corp., Mountain View, California).
# [1] = EOC evaluable for efficacy (N=60)
# [2] = EOC, Total BID Dosage Group (n=51)
# [3] = EOC, Total QD Dosage Group (n=9)
# [4] = Total BID dosage group, EOC efficacy-evaluable (n = 51)
compound,measurement,setting,value
C[C@]12CCCN1CC1=NNC(=O)c3cc(F)cc4[nH]c2c1c34 [pamiparib],CR,[1],6.7%
same,PR,[1],31.7%
same,"Event-free rate, 1 year","EOC, Total (N=60)",41.0 (26.93-54.59) % (95% CI)
same,"Event-free rate, 2 years","EOC, Total (N=60)",14.8 (5.46-28.41) % (95% CI)
same,"ORR, subgroup Age <65","EOC, Total (N=60)",39.5 (24.98-55.59) [43/60] % (95% CI)
same,"ORR, subgroup Age ≥65","EOC, Total (N=60)",35.3 (14.21-61.67) [17/60] % (95% CI)
same,"ORR, subgroup Baseline ECOG performance status 0","EOC, Total (N=60)",45.8 (25.55-67.18) [24/60] % (95% CI)
same,"ORR, subgroup Baseline ECOG performance status ≥1","EOC, Total (N=60)",33.3 (18.56-50.97) [36/60] % (95% CI)
same,"ORR, subgroup Germline BRCA status Mutant","EOC, Total (N=60)",66.7 (40.99-86.66) [18/60] % (95% CI)
same,"ORR, subgroup Germline BRCA status Wild-type/Unknown","EOC, Total (N=60)",26.2 (13.86-42.04) [42/60] % (95% CI)
same,"ORR, subgroup Germline or somatic BRCA status Mutant","EOC, Total (N=60)",61.3 (42.19-78.15) [31/60] % (95% CI)
same,"ORR, subgroup Germline or somatic BRCA status Wild-type/Unknown","EOC, Total (N=60)",13.8 (3.89-31.66) [29/60] % (95% CI)
same,"ORR, subgroup HRD status Negative/Unknown","EOC, Total (N=60)",15.4 (4.36-34.87) [26/60] % (95% CI)
same,"ORR, subgroup HRD status Positive","EOC, Total (N=60)",55.9 (37.89-72.81) [34/60] % (95% CI)
same,"ORR, subgroup Platinum-sensitivity status Refractory","EOC, Total (N=60)",8.3 (0.21-38.48) [12/60] % (95% CI)
same,"ORR, subgroup Platinum-sensitivity status Resistant","EOC, Total (N=60)",16.7 (4.74-37.38) [24/60] % (95% CI)
same,"ORR, subgroup Platinum-sensitivity status Sensitive","EOC, Total (N=60)",75.0 (53.29-90.23) [24/60] % (95% CI)
same,"ORR, subgroup Solid tumor stage 3","EOC, Total (N=60)",45.5 (28.11-63.65) [33/60] % (95% CI)
same,"ORR, subgroup Solid tumor stage 4","EOC, Total (N=60)",26.1 (10.23-48.41) [23/60] % (95% CI)
same,PFS censored: No disease progression or death,"EOC, Total (N=60)",17 (28.3) n (%)
same,PFS censored: No postbaseline assessment,"EOC, Total (N=60)",2 (3.3) n (%)
same,PFS censored: ≥2 consecutive missed assessments,"EOC, Total (N=60)",2 (3.3) n (%)
same,PFS events: Death,"EOC, Total (N=60)",9 (15.0) n (%)
same,PFS events: Disease progression,"EOC, Total (N=60)",30 (50.0) n (%)
same,PFS: Censored,"EOC, Total (N=60)",21 (35.0) n (%)
same,PFS: Events,"EOC, Total (N=60)",39 (65.0) n (%)
same,"Progression-Free Survival, Median","EOC, Total (N=60)",8.3 (5.45-13.67) months (95% CI)
same,"Event-free rate, 1 year",[2],45.6 (29.51-60.25) % (95% CI)
same,"Event-free rate, 2 years",[2],16.4 (5.98-31.33) % (95% CI)
same,"ORR, subgroup Age <65",[2],42.1 (26.31-59.18) [38/51] % (95% CI)
same,"ORR, subgroup Age ≥65",[2],38.5 (13.86-68.42) [13/51] % (95% CI)
same,"ORR, subgroup Baseline ECOG performance status 0",[2],47.8 (26.82-69.41) [23/51] % (95% CI)
same,"ORR, subgroup Baseline ECOG performance status ≥1",[2],35.7 (18.64-55.93) [28/51] % (95% CI)
same,"ORR, subgroup Germline BRCA status Mutant",[2],73.3 (44.90-92.21) [15/51] % (95% CI)
same,"ORR, subgroup Germline BRCA status Wild-type/Unknown",[2],27.8 (14.20-45.19) [36/51] % (95% CI)
same,"ORR, subgroup Germline or somatic BRCA status Mutant",[2],64.3 (44.07-81.36) [28/51] % (95% CI)
same,"ORR, subgroup Germline or somatic BRCA status Wild-type/Unknown",[2],13.0 (2.78-33.59) [23/51] % (95% CI)
same,"ORR, subgroup HRD status Negative/Unknown",[2],14.3 (3.05-36.34) [21/51] % (95% CI)
same,"ORR, subgroup HRD status Positive",[2],60.0 (40.60-77.34) [30/51] % (95% CI)
same,"ORR, subgroup Platinum-sensitivity status Refractory",[2],9.1 (0.23-41.28) [11/51] % (95% CI)
same,"ORR, subgroup Platinum-sensitivity status Resistant",[2],21.1 (6.05-45.57) [19/51] % (95% CI)
same,"ORR, subgroup Platinum-sensitivity status Sensitive",[2],76.2 (52.83-91.78) [21/51] % (95% CI)
same,"ORR, subgroup Solid tumor stage 3",[2],53.6 (33.87-72.49) [28/51] % (95% CI)
same,"ORR, subgroup Solid tumor stage 4",[2],23.8 (8.22-47.17) [21/51] % (95% CI)
same,PFS censored: No disease progression or death,[2],15 (29.4) n (%)
same,PFS censored: No postbaseline assessment,[2],2 (3.9) n (%)
same,PFS censored: ≥2 consecutive missed assessments,[2],2 (3.9) n (%)
same,PFS events: Death,[2],6 (11.8) n (%)
same,PFS events: Disease progression,[2],26 (51.0) n (%)
same,PFS: Censored,[2],19 (37.3) n (%)
same,PFS: Events,[2],32 (62.7) n (%)
same,"Progression-Free Survival, Median",[2],9.9 (5.49-14.62) months (95% CI)
same,Best overall response: Complete response,"EOC, Total BID and QD (N=60)",4 (6.7) n (%)
same,Best overall response: Not assessed,"EOC, Total BID and QD (N=60)",3 (5.0) n (%)
same,Best overall response: Not evaluable,"EOC, Total BID and QD (N=60)",2 (3.3) n (%)
same,Best overall response: Partial response,"EOC, Total BID and QD (N=60)",19 (31.7) n (%)
same,Best overall response: Progressive disease,"EOC, Total BID and QD (N=60)",2 (3.3) n (%)
same,Best overall response: Stable disease,"EOC, Total BID and QD (N=60)",30 (50.0) n (%)
same,Clinical benefit rate,"EOC, Total BID and QD (N=60)",51.7 (38.39-64.77) % (95% CI)
same,Disease control rate,"EOC, Total BID and QD (N=60)",88.3 (77.43-95.18) % (95% CI)
same,Objective response rate,"EOC, Total BID and QD (N=60)",38.3 (26.07-51.79) % (95% CI)
same,Best overall response: Complete response,[3],0 (0) n (%)
same,Best overall response: Not assessed,[3],0 (0) n (%)
same,Best overall response: Not evaluable,[3],1 (11.1) n (%)
same,Best overall response: Partial response,[3],2 (22.2) n (%)
same,Best overall response: Progressive disease,[3],0 (0) n (%)
same,Best overall response: Stable disease,[3],6 (66.7) n (%)
same,Clinical benefit rate,[3],33.3 (7.49-70.07) % (95% CI)
same,Disease control rate,[3],88.9 (51.75-99.72) % (95% CI)
same,"ORR, subgroup Age <65",[3],20.0 (0.51-71.64) [5/9] % (95% CI)
same,"ORR, subgroup Age ≥65",[3],25.0 (0.63-80.59) [4/9] % (95% CI)
same,"ORR, subgroup Baseline ECOG performance status 0",[3],0.0 (0.00-97.50) [1/9] % (95% CI)
same,"ORR, subgroup Baseline ECOG performance status ≥1",[3],25.0 (3.19-65.09) [8/9] % (95% CI)
same,"ORR, subgroup Germline BRCA status Mutant",[3],33.3 (0.84-90.57) [3/9] % (95% CI)
same,"ORR, subgroup Germline BRCA status Wild-type/Unknown",[3],16.7 (0.42-64.12) [6/9] % (95% CI)
same,"ORR, subgroup Germline or somatic BRCA status Mutant",[3],33.3 (0.84-90.57) [3/9] % (95% CI)
same,"ORR, subgroup Germline or somatic BRCA status Wild-type/Unknown",[3],16.7 (0.42-64.12) [6/9] % (95% CI)
same,"ORR, subgroup HRD status Negative/Unknown",[3],20.0 (0.51-71.64) [5/9] % (95% CI)
same,"ORR, subgroup HRD status Positive",[3],25.0 (0.63-80.59) [4/9] % (95% CI)
same,"ORR, subgroup Platinum-sensitivity status Sensitive",[3],66.7 (9.43-99.16) [3/9] % (95% CI)
same,"ORR, subgroup Solid tumor stage 3",[3],0.0 (0.00-52.18) [5/9] % (95% CI)
same,"ORR, subgroup Solid tumor stage 4",[3],50.0 (1.26-98.74) [2/9] % (95% CI)
same,Objective response rate,[3],22.2 (2.81-60.01) % (95% CI)
same,PFS censored: No disease progression or death,[3],2 (22.2) n (%)
same,PFS censored: No postbaseline assessment,[3],0 (0) n (%)
same,PFS censored: ≥2 consecutive missed assessments,[3],0 (0) n (%)
same,PFS events: Death,[3],3 (33.3) n (%)
same,PFS events: Disease progression,[3],4 (44.4) n (%)
same,PFS: Censored,[3],2 (22.2) n (%)
same,PFS: Events,[3],7 (77.8) n (%)
same,"Progression-Free Survival, Median",[3],4.9 (1.84-NE) months (95% CI)
same,Best overall response: Complete response,[4],4 (7.8) n (%)
same,Best overall response: Not assessed,[4],3 (5.9) n (%)
same,Best overall response: Not evaluable,[4],1 (2.0) n (%)
same,Best overall response: Partial response,[4],17 (33.3) n (%)
same,Best overall response: Progressive disease,[4],2 (3.9) n (%)
same,Best overall response: Stable disease,[4],24 (47.1) n (%)
same,Clinical benefit rate,[4],54.9 (40.3–68.9) % (95% CI) and 54.9 (40.34-68.87) % (95% CI)
same,Disease control rate,[4],88.2 (76.1–95.6) % (95% CI) and 88.2 (76.13-95.56) % (95% CI)
same,Objective response rate,[4],41.2 (27.6–55.8) % (95% CI) and 41.2 (27.58-55.83) % (95% CI)
